Test results as given in patent US20250230193A1, “CYCLIC COMPOUND HAVING SELECTIVE KRAS INHIBITORY EFFECT ON HRAS AND NRAS” (CHUGAI SEIYAKU KABUSHIKI KAISHA, priority 2022, published 2025).
*1 amine or outer side, *2 acyl side, *3 side chain or, on linkers, in order; H or OH if unused. Where a SMILES comes first, the peptide text is derived from it. Bridges are numbered along the chain shown (N, C = ends). [ ]: non-standard residue; d: D form. The star is where a group is joined. hPhe(3-Cl-4-CF3) = N[C@@H](CCc1ccc(C(F)(F)F)c(Cl)c1)C(=O)O; NPrPhe(4-CF3) = CCCN[C@@H](Cc1ccc(C(F)(F)F)cc1)C(=O)O; X43 = Cc1ccc(C[C@@H](C(=O)[*:2])N(CC2CCC2)[*:1])cc1; NEtAsp = CCN([C@@H](CC(=O)[*:3])C(=O)[*:2])[*:1]; NMeGly(cPent) = CN[C@H](C(=O)O)C1CCCC1; Pro(4,4-F2) = O=C(O)[C@@H]1CC(F)(F)CN1; NMeD = CN[C@@H](CC(=O)O)C(=O)O; NMeL = CN[C@@H](CC(C)C)C(=O)O; Morpholide = C1CN(*)CCO1; NMeA = CN[C@@H](C)C(=O)O; Ac5c = NC1(C(=O)O)CCCC1; Aze = O=C(O)[C@@H]1CCN1; Sar = CNCC(=O)O

Columns and labels:
[1] = target: GDP-bound NRAS wild-type protein (Homo sapiens, UniProt P01111); experiment: Binding to NRAS by surface plasmon resonance (SPR), Single Cycle Kinetics
GDP-bound NRAS wild-type protein, sequence (P01111 whole entry): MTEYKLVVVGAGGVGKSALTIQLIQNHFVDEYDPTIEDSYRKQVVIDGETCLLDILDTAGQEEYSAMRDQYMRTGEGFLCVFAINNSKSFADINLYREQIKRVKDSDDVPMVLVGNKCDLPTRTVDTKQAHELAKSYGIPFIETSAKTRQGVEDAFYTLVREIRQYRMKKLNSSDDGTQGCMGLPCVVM

[2] = target: GDP-bound HRAS wild-type protein (Homo sapiens, UniProt P01112); experiment: Binding to HRAS by surface plasmon resonance (SPR), Single Cycle Kinetics
GDP-bound HRAS wild-type protein, sequence (P01112 whole entry): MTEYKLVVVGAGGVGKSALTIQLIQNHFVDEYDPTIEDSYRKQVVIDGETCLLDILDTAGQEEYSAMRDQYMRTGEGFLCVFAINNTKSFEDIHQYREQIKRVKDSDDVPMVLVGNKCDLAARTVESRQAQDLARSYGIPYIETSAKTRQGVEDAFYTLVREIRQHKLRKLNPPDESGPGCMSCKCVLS

[3] = GDP-bound NRAS wild-type vs GDP-bound KRAS wild-type, SPR
[4] = GDP-bound HRAS wild-type vs GDP-bound KRAS wild-type, SPR

SMILES: CCCN1C(=O)[C@@H]2CCN2C(=O)[C@H](C)N(C)C(=O)[C@H]([C@@H](C)CC)NC(=O)[C@H](CC(C)C)N(C)C(=O)C[C@@H](C(=O)N2CCOCC2)NC(=O)[C@H](C2CCCC2)N(C)C(=O)C2(CCCC2)NC(=O)[C@@H]2CC(F)(F)CN2C(=O)[C@H](CCc2ccc(C(F)(F)F)c(Cl)c2)NC(=O)CN(C)C(=O)[C@@H]1Cc1ccc(C(F)(F)F)cc1 [PP0345] ([NMeL]I[NMeA][Aze][NPrPhe(4-CF3)][Sar][hPhe(3-Cl-4-CF3)][Pro(4,4-F2)][Ac5c][NMeGly(cPent)]D-Morpholide; lactam N-11)
- NRAS/KRAS (ratio of KD for GDP-bound NRAS wild-type to KD for KRAS) ([1]; SPR): C (A compound having a KD ratio of 0.1 or more and less than 3 is denoted as C)
- HRAS/KRAS (ratio of KD for GDP-bound HRAS wild-type to KD for KRAS) ([2]; SPR): B (a compound having 3 or more and less than 10 is denoted as B)

SMILES: C#CC[C@H]1C(=O)N[C@@H]([C@@H](C)CC)C(=O)N(C)CC(=O)N(C)[C@H]2C/C=C\CCN(C2=O)[C@@H](Cc2ccc(C(F)(F)F)cc2)C(=O)N(C)CC(=O)N[C@@H](CCc2ccc(C(F)(F)F)c(OC)c2)C(=O)N2C[C@H](OCC)C[C@H]2C(=O)NC2(CC(C)(C)C2)C(=O)N(C)[C@@H](C2CCCC2)C(=O)N(C)[C@H](C(=O)N(C)CC)CC(=O)N1C [PP2051]
- NRAS/KRAS (ratio of KD value with respect to NRAS to KD value with respect to KRAS) ([1]; SPR, GDP-bound NRAS wild-type vs GDP-bound KRAS wild-type): A (a compound having 10 or more and less than 20 is denoted as A)
- HRAS/KRAS (ratio of KD value with respect to HRAS to KD value with respect to KRAS) ([2]; SPR, GDP-bound HRAS wild-type vs GDP-bound KRAS wild-type): A (a compound having 10 or more and less than 20 is denoted as A)

SMILES: CCCN1C(=O)CN(C)C(=O)CNC(=O)[C@H]([C@@H](C)CC)NC(=O)[C@H](CC(C)C)N(C)C(=O)C[C@@H](C(=O)N2CCOCC2)N(CC)C(=O)[C@H](C2CCCC2)N(C)C(=O)C2(CCCC2)NC(=O)[C@@H]2CCCN2C(=O)[C@H](CCc2ccc(C(F)(F)F)c(Cl)c2)NC(=O)CN(C)C(=O)[C@@H]1Cc1ccc(C(F)(F)F)cc1 [PP1970] ([NMeL]IG[Sar][NPrPhe(4-CF3)][Sar][hPhe(3-Cl-4-CF3)]P[Ac5c][NMeGly(cPent)][NEtAsp]-Morpholide; lactam N-11)
- NRAS/KRAS (ratio of KD value for NRAS to KD value for KRAS) [1, 3]: B (a compound having 3 or more and less than 10 is denoted as B)
- HRAS/KRAS (ratio of KD value for HRAS to KD value for KRAS) [2, 4]: B (a compound having 3 or more and less than 10 is denoted as B)

SMILES: CC[C@H](C)[C@@H]1NC(=O)[C@H](COC)N(C)C(=O)C[C@@H](C(=O)N2CCCCC2)N(C)C(=O)[C@H](C2CCCC2)N(C)C(=O)C2(CC(C)(C)C2)NC(=O)[C@@H]2C[C@@H](OC3CCCC3)CN2C(=O)[C@H](CCc2cc(F)c(C(F)(F)F)c(F)c2)NC(=O)CN(C)C(=O)[C@H](Cc2ccc(C(F)(F)F)cc2)N2CC/C=C\C[C@@H](C2=O)N(C)C(=O)CN(C)C1=O [PP2665]
- NRAS/KRAS (ratio of KD value with respect to GDP-bound NRAS wild-type protein to KD value with respect to KRAS) ([1]; class symbols): A (a compound having 10 or more and less than 20 is denoted as A)
- HRAS/KRAS (ratio of KD value with respect to GDP-bound HRAS wild-type protein to KD value with respect to KRAS) ([2]; class symbols): A (a compound having 10 or more and less than 20 is denoted as A)

SMILES: CC[C@H](C)[C@@H]1NC(=O)[C@H](CC(C)C)N(C)C(=O)C[C@@H](C(=O)N2CCCCC2)N(C)C(=O)[C@H](C2CCCC2)N(C)C(=O)C2(CCCC2)NC(=O)[C@@H]2CCCN2C(=O)[C@H](CCc2cc(F)c(C(F)(F)F)c(F)c2)NC(=O)CN(C)C(=O)[C@H](Cc2ccc(C(F)(F)F)cc2)N2CCCCC[C@@H](C2=O)N(C)C(=O)CN(C)C1=O [PP0510]
- NRAS/KRAS (ratio of KD value with respect to GDP-bound NRAS wild-type protein to KD value with respect to KRAS) ([1]; SPR): B (a compound having 3 or more and less than 10 is denoted as B)
- HRAS/KRAS (ratio of KD value with respect to GDP-bound HRAS wild-type protein to KD value with respect to KRAS) ([2]; SPR): B (a compound having 3 or more and less than 10 is denoted as B)

SMILES: CCCN(C)C(=O)[C@@H]1CC(=O)N(C)[C@@H](COC)C(=O)N[C@@H]([C@@H](C)CC)C(=O)N(C)CC(=O)N(C)[C@H]2C/C=C\CCN(C2=O)[C@@H](Cc2ccc(C(F)(F)F)cc2)C(=O)N(C)CC(=O)N[C@@H](CCc2ccc(C(F)(F)F)c(OC)c2)C(=O)N2C[C@H](OCC)C[C@H]2C(=O)NC2(CC(C)(C)C2)C(=O)N(C)[C@@H](C2CCCC2)C(=O)N1C [PP1656]
- NRAS/KRAS (ratio of KD value for NRAS to KD value for KRAS) [1, 3]: AA (a compound having 20 or more is denoted as AA)
- HRAS/KRAS (ratio of KD value for HRAS to KD value for KRAS) [2, 4]: A (a compound having 10 or more and less than 20 is denoted as A)

SMILES: CC[C@H](C)[C@@H]1NC(=O)[C@H](CC(C)C)N(C)C(=O)C[C@@H](C(=O)N2CCOCC2)N(C)C(=O)[C@H](C2CCCC2)N(C)C(=O)C2(CCCC2)NC(=O)[C@@H]2CCCN2C(=O)[C@H](CCc2ccc(C(F)(F)F)c(Cl)c2)NC(=O)CN(C)C(=O)[C@H](Cc2ccc(C)cc2)N(CC2CCC2)C(=O)CN(C)C(=O)CN(C)C1=O [PP0095] ([NMeL]I[Sar][Sar][X43][Sar][hPhe(3-Cl-4-CF3)]P[Ac5c][NMeGly(cPent)][NMeD]-Morpholide; lactam N-11)
- NRAS/KRAS (ratio of KD for GDP-bound NRAS wild-type to KD for KRAS) ([1]; SPR): C (A compound having a KD ratio of 0.1 or more and less than 3 is denoted as C)
- HRAS/KRAS (ratio of KD for GDP-bound HRAS wild-type to KD for KRAS) ([2]; SPR): C (A compound having a KD ratio of 0.1 or more and less than 3 is denoted as C)
